Experimental data as given in the NIST ThermoML archive (doi:10.1021/je060107n).

Experiment: mn = molality of the nth substance listed, in mol/kg
Settings: 101 kPa, Liquid; for viscosity: Capillary tube (Ostwald / Ubbelohde) method; for speed of sound: Linear variable-path acoustic interferometer; for mass density: Pycnometric method

CC(=O)[O-].CC(=O)[O-].[Mg+2] [magnesium acetate] + O
Settings	mass density [kg/m3]	speed of sound [m/s]	viscosity [mPa·s]
293.15 K, m1 = 0.0414	–	1487.6	–
293.15 K, m1 = 0.0831	–	1497.5	–
293.15 K, m1 = 0.1671	–	1508.3	–
293.15 K, m1 = 0.4247	–	1545.4	–
293.15 K, m1 = 0.646	–	1577.8	–
293.15 K, m1 = 0.8751	–	1609.8	–
293.15 K, m1 = 1.106	–	1639.8	–
293.15 K, m1 = 1.354	–	1665.7	–
293.15 K, m1 = 1.608	–	1697.3	–
293.15 K, m1 = 1.866	–	1725.6	–
293.15 K, m1 = 2.134	–	1754.5	–
293.15 K, m1 = 2.411	–	1782.6	–
293.15 K, m1 = 2.622	–	1798.8	–
293.15 K, m1 = 3.043	–	1832.8	14.98
293.15 K, m1 = 3.437	–	1866.8	24.4
293.15 K, m1 = 3.819	–	1884.3	–
293.15 K, m1 = 4.001	–	–	41.34
293.15 K, m1 = 4.547	–	1917.4	–
293.15 K, m1 = 4.563	–	–	75.04
293.15 K, m1 = 4.929	–	–	97.76
293.15 K, m1 = 5.165	–	1940.8	–
293.15 K, m1 = 5.732	–	1954.7	–
294.9 K, m1 = 2.411	1149	–	–
295.15 K, m1 = 0.4247	1029.4	–	–
295.15 K, m1 = 0.8751	1059.6	–	–
295.4 K, m1 = 0.1671	1010.2	–	–
296 K, m1 = 1.354	1089.6	–	–
296.1 K, m1 = 1.866	1118.6	–	–
297.95 K, m1 = 2.411	1147.7	–	–
298.05 K, m1 = 1.106	1074.8	–	–
298.15 K, m1 = 0.0414	–	1501.7	0.9322
298.15 K, m1 = 0.0831	–	1510.4	0.964
298.15 K, m1 = 0.1671	–	1520.6	1.034
298.15 K, m1 = 0.4247	–	1556.9	1.286
298.15 K, m1 = 0.646	–	1587.3	1.566
298.15 K, m1 = 0.8751	–	1616.2	1.873
298.15 K, m1 = 1.106	–	1645.9	2.31
298.15 K, m1 = 1.354	–	1671.1	2.821
298.15 K, m1 = 1.608	–	1700.3	2.821
298.15 K, m1 = 1.866	–	1727.7	4.32
298.15 K, m1 = 2.134	–	1754.6	5.472
298.15 K, m1 = 2.411	–	1781.9	7.183
298.15 K, m1 = 2.622	–	1797.3	8.354
298.15 K, m1 = 3.043	–	1829.5	12.02
298.15 K, m1 = 3.437	–	1861.2	19.05
298.15 K, m1 = 3.819	–	1878	–
298.15 K, m1 = 4.001	–	–	31.38
298.15 K, m1 = 4.547	–	1908	–
298.15 K, m1 = 4.563	–	–	55
298.15 K, m1 = 4.929	–	–	70.36
298.15 K, m1 = 5.165	–	1929.7	–
298.15 K, m1 = 5.41	–	–	141.2
298.15 K, m1 = 5.732	–	1940.2	–
298.3 K, m1 = 3.043	1175	–	–
298.7 K, m1 = 2.134	1132.2	–	–
298.75 K, m1 = 0.0831	1003.1	–	–
298.8 K, m1 = 3.437	1195.5	–	–
298.85 K, m1 = 0.646	1044	–	–
298.95 K, m1 = 0.8751	1058.5	–	–
299.15 K, m1 = 0.4247	1028.4	–	–
299.2 K, m1 = 2.622	1155.8	–	–
299.3 K, m1 = 1.866	1117.5	–	–
299.55 K, m1 = 5.732	1267.4	–	–
299.6 K, m1 = 0.1671	1009.1	–	–
299.65 K, m1 = 1.354	1088.4	–	–
300.6 K, m1 = 1.608	1103.6	–	–
300.85 K, m1 = 0.0414	999.3	–	–
301 K, m1 = 2.411	1146.5	–	–
301.05 K, m1 = 3.043	1173.8	–	–
301.35 K, m1 = 1.327	1086.4	–	–
301.5 K, m1 = 3.437	1194.2	–	–
301.55 K, m1 = 2.134	1131.1	–	–
301.7 K, m1 = 1.106	1073.7	–	–
301.75 K, m1 = 5.732	1266	–	–
302.05 K, m1 = 2.622	1154.6	–	–
302.05 K, m1 = 3.819	1205.9	–	–
302.25 K, m1 = 0.646	1043	–	–
302.4 K, m1 = 1.866	1116.3	–	–
302.4 K, m1 = 5.165	1249.6	–	–
302.5 K, m1 = 0.0831	1002	–	–
302.55 K, m1 = 0.8751	1057.4	–	–
302.7 K, m1 = 1.354	1087.4	–	–
302.75 K, m1 = 0.4247	1027.2	–	–
302.95 K, m1 = 4.547	1229.9	–	–
303.15 K, m1 = 0.0414	–	1513.4	0.835
303.15 K, m1 = 0.0831	–	1521.5	0.8624
303.15 K, m1 = 0.1671	–	1532.2	0.9234
303.15 K, m1 = 0.4247	–	1567.4	1.141
303.15 K, m1 = 0.646	–	1595.7	1.383
303.15 K, m1 = 0.8751	–	1625.4	1.64
303.15 K, m1 = 1.106	–	1651.6	2.014
303.15 K, m1 = 1.354	–	1676.1	2.446
303.15 K, m1 = 1.608	–	1703	2.446
303.15 K, m1 = 1.866	–	1728.9	3.688
303.15 K, m1 = 2.134	–	1755.5	4.619
303.15 K, m1 = 2.411	–	1781.3	6.056
303.15 K, m1 = 2.622	–	1795.2	6.928
303.15 K, m1 = 3.043	–	1824.8	9.798
303.15 K, m1 = 3.437	–	1855.5	15.2
303.15 K, m1 = 3.819	–	1870.5	–
303.15 K, m1 = 4.001	–	–	24.27
303.15 K, m1 = 4.547	–	1899.1	–
303.15 K, m1 = 4.563	–	–	41.02
303.15 K, m1 = 4.929	–	–	51.77
303.15 K, m1 = 5.165	–	1919	–
303.15 K, m1 = 5.41	–	–	99.4
303.15 K, m1 = 5.732	–	1926.8	135.8
303.3 K, m1 = 0.1671	1008	–	–
303.65 K, m1 = 1.608	1102.5	–	–
303.75 K, m1 = 2.411	1145.4	–	–
303.75 K, m1 = 3.043	1172.5	–	–
303.75 K, m1 = 5.732	1264.8	–	–
303.9 K, m1 = 3.437	1193.1	–	–
304.4 K, m1 = 3.819	1204.7	–	–
304.45 K, m1 = 0.0414	998.24	–	–
304.55 K, m1 = 2.134	1129.8	–	–
304.6 K, m1 = 5.165	1248.3	–	–
304.7 K, m1 = 1.327	1085.2	–	–
304.8 K, m1 = 2.622	1153.3	–	–
304.95 K, m1 = 1.106	1072.5	–	–
305.35 K, m1 = 4.547	1228.6	–	–
